Reference: paper PMC12111632, “Expression, purification and preliminary pharmacological characterization of the Plasmodium falciparum membrane-bound pyrophosphatase type 1” (PLOS One, 2025)
pIC50: −log10 of the molar value. Counter-ions that a name gives are not always drawn. Like-named read-outs stand apart in the source and are kept apart here. Values belong to the compound of their own block, whether it stands above or below them.

Assays:
[1] = target: PfPPase-VP1 (Plasmodium falciparum, UniProt Q8IKR1); experiment: biochemical
Protocol: The activity of PfPPase-VP1 was determined using a molybdenum blue colorimetric activity assay in 96-well plate format to measure the amount of phosphate production, as previously described for TmPPase but with modifications to pH (5.2–10) and temperature conditions (20–70°C) as described below. To determine the optimal pH for PfPPase-VP1 activity, 5 μL of 2.5 mg/mL total membrane protein was added to the reaction mixture (60 mM of various buffers (below) with pHs ranging from 5.2–10.0, 3 mM MgCl2, 100 mM KCl, and 10 mM NaCl, 100 mM NaF, 5 μM Gramicidin D), to a final volume of 40 μL. Buffers were trisodium-citrate (pH 5.2), MES (pH 6.5), Tris-HCl (pH 6.8, 7.5, 8.0, and 8.8) and glycine-NaOH (pH 10.0). A control sample was prepared by heating the membrane faction at 90 °C for 5 min to inactivate the enzyme. The reaction mixture was incubated at 30 °C for 5 min in a 96-well heating block. After incubation, 10 µl of 2 mM sodium pyrophosphate (PPi) was added, mixed, and incubated for 10 min. The reaction was stopped by adding 60 μL of premixed solution A (0.3 g ascorbic acid in 10 mL of 0.5 M cold HCl) and solution B (70 mg of ammonium heptamolybdate tetrahydrate in 1 mL of cold milli-Q water) and incubating on ice for 1 h. Finally, 90 μL sodium arsenite solution (5 g sodium arsenite, 5 g trisodium citrate dihydrate and 5 mL of iced-acetic acid in 250 mL milli-Q water) was added and incubated at RT for 30 min. Absorbance was measured at 860 nm on a MultiSkan Go UV/Vis spectrophotometer (Thermo Scientific). The specific activity of PfPPase-VP1 in the membrane was calculated using our previously published formula [23]. 60 mM Tris-Cl (pH 7.5) buffer was then selected for optimization of the reaction temperature (RT, 30 °C, 40 °C, 50 °C, 60 °C and 70 °C) by repeating the assay as described above. […] For the activity assay of purified PfPPase-VP1, 0.15 μg of the enzyme in the optimized detergent solution was mixed with 0.8 μL of 20 mg/mL liposomes (soybean lecithin) and then reaction buffer (60 mM Tris-HCl (pH 7.5), 3 mM MgCl2, 100 mM KCl, and 10 mM NaCl) was added to a total volume of 40 μL. The reaction mixture was preheated at 50 °C for 5 min before adding 10 µl of 2mM PPi and mixing. The catalytic reaction was run for 45 min at 50 °C, and the phosphate production was determined as described above. IDP, a known mPPase competitive inhibitor [35], was used as a positive control to validate the assay for inhibitor screening.
The 35 compounds used in this study were pre-dissolved in dimethyl sulfoxide (DMSO) at concentrations of 25–50 mM.
IDP was used in parallel as a positive control. Each concentration of the test compounds was tested in triplicate.

[2] = target: T1, TmPPase (Thermotoga maritima, UniProt Q9S5X0); experiment: TmPPase inhibition assay (96-well molybdenum blue colorimetric phosphate assay); format: biochemical; parameters: made in house
T1 sequence (Q9S5X0 1-726): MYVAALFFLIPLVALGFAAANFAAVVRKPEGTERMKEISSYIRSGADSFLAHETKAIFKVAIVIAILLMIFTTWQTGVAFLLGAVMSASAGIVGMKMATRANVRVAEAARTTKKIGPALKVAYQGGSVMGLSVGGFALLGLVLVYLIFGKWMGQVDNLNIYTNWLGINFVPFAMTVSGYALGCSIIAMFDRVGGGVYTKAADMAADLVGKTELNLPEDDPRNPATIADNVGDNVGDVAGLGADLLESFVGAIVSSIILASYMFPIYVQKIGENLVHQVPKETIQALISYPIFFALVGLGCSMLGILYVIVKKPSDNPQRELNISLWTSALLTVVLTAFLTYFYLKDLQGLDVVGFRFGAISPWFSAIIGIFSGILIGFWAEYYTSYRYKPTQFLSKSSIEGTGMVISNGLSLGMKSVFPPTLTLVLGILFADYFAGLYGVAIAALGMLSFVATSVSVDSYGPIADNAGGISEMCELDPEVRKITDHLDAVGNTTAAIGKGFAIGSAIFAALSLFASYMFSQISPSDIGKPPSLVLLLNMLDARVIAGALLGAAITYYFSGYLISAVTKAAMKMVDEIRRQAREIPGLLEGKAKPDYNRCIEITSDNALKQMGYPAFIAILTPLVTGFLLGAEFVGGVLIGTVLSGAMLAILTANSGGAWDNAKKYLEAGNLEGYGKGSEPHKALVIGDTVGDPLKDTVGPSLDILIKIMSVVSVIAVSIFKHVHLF

[3] = target: T1, TmPPase; parameters: made in house; host or cells: S. cerevisiae; settings: cited from earlier work
[4] = purified PfPPase-VP1 reconstituted in liposomes, Tris-HCl pH 7.5, 50 °C, 45 min, triplicate, interval given
[5] = interval given, read-out: IC50 (TmPPase)

Sequence of PfPPase-VP1 (Q8IKR1 entry or part of it): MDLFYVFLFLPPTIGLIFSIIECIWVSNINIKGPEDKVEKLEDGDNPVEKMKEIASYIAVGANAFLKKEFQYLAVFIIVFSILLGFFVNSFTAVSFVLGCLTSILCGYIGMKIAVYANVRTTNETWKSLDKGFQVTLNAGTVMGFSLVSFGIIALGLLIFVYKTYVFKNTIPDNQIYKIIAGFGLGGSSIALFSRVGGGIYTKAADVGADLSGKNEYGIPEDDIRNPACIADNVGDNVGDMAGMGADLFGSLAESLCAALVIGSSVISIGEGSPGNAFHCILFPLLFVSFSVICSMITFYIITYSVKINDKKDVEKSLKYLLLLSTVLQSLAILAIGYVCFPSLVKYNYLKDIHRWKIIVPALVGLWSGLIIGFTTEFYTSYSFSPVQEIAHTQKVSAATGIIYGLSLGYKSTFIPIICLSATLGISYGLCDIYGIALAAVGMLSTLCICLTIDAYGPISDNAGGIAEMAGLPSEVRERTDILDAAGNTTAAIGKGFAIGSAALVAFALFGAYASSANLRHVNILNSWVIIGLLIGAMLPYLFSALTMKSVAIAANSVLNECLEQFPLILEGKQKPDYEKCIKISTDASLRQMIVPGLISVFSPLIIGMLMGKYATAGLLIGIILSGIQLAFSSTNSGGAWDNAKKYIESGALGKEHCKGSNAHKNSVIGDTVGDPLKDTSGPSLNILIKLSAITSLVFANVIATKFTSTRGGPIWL

SMILES: O=CN(O)CCCP(=O)(O)O [Compound 9, Fosmidomycin]
IC50 (PfPPase, μM) [1, 4]: Inactive | IC50 (TmPPase, μM) [2]: Inactive

IC50 (PfPPase, μM) [1, 4]: Inactive | IC50 (TmPPase, μM) [2]: Inactive
SMILES: CCN(CC)CCCC(C)Nc1ccnc2cc(Cl)ccc12 (stereo not drawn) [Compound 12, Chloroquine diphospate salt]

SMILES: CCN(CCO)CCCC(C)Nc1ccnc2cc(Cl)ccc12 (stereo not drawn) [Compound 14, Hydroxychloroquine]
IC50 (PfPPase, μM) [1, 4]: Inactive | IC50 (TmPPase, μM) [2]: Inactive

SMILES: OC(c1cc(C(F)(F)F)nc2c(C(F)(F)F)cccc12)C1CCCCN1 (stereo not drawn) [Compound 5, Mefloquine hydrochloride]
IC50 (TmPPase, μM) [2]: Inactive

IC50 (PfPPase, μM) [1, 4]: Inactive | IC50 (TmPPase, μM) [2]: Inactive
SMILES: CCN(CC)CCCC(C)Nc1ccnc2cc(Cl)ccc12 (stereo not drawn) [Compound 11, Chloroquine]

SMILES: CCN(CCO)CCCC(C)Nc1ccnc2cc(Cl)ccc12 (stereo not drawn) [Compound 13, Hydroxychloroquine sulfate]
IC50 (PfPPase, μM) [1, 4]: Inactive | IC50 (TmPPase, μM) [2]: Inactive

IC50 (PfPPase, μM) [1, 4]: Inactive
SMILES: CCOC(=O)c1cc(-c2ccc(OC)c(S(=O)(=O)N3CCCSc4ccccc43)c2)on1 [Compound 15]

SMILES: CC(C)(C)c1cc(-c2cc(C(=O)Oc3ccccc3Br)no2)cc(C(C)(C)C)c1 [Compound 18]
IC50 (PfPPase, μM) [1, 4]: Inactive | pIC50 [3, 5]: 5.00

SMILES: C=Cc1cc2nc(C(=O)O)cc(-c3cc(C)cc(C)c3)n2n1 [Compound 19]
pIC50 ([3]; read-out: IC50 against TmPPase): > 4.70

SMILES: CC1(C)N=C(N)N=C(N)N1c1ccc(Cl)cc1 [Compound 4, Cycloguanil hydrochloride]
IC50 (PfPPase, μM) [1, 4]: Inactive | IC50 (TmPPase, μM) [2]: Inactive

SMILES: CC(=O)N(O)CCCP(=O)(O)O [Compound 10, FR900098 (sodium salt)]
IC50 (PfPPase, μM) [1, 4]: Inactive | IC50 (TmPPase, μM) [2]: Inactive

SMILES: [H]/N=C(\N/C(=N/[H])Nc1ccc(Cl)cc1)NC(C)C [Compound 6, Proguanil hydrochloride]
IC50 (PfPPase, μM) [1, 4]: Inactive | IC50 (TmPPase, μM) [2]: Inactive

SMILES: N=C(N)c1ccc(OCCCCCOc2ccc(C(=N)N)cc2)cc1 [Compound 3, Pentamidine isethionate]
IC50 (TmPPase, μM) [2]: Inactive

SMILES: N=C(N)c1ccc(-c2ccc(-c3ccc(C(=N)N)cc3)o2)cc1 [Compound 2, Furamidine dihydrochloride]
pIC50 [1]: 3.72 | IC50 (TmPPase, μM) [2]: Inactive

SMILES: C[C@@H]1CC[C@H]2[C@@H](C)C(=O)O[C@@H]3O[C@@]4(C)CC[C@@H]1[C@]32OO4 [Compound 1, Artemisinin]
IC50 (PfPPase, μM) [1, 4]: Inactive | IC50 (TmPPase, μM) [2]: Inactive

IC50 (PfPPase, μM) [1, 4]: Inactive
SMILES: Cc1cc(C)cc(-c2cc(C(=O)Oc3ccccc3Br)no2)c1 [Compound 17]
pIC50 [3, 5]: 5.17

SMILES: C[C@H]1c2cccc(O)c2C(=O)C2=C(O)[C@]3(O)C(=O)C(C(N)=O)=C(O)[C@@H](N(C)C)[C@@H]3[C@@H](O)[C@@H]21 [Compound 7, Doxycyline monohydrate]
IC50 (PfPPase, μM) [1, 4]: Inactive | IC50 (TmPPase, μM) [2]: Inactive

SMILES: O=C1C(O)=C([C@H]2CC[C@H](c3ccc(Cl)cc3)CC2)C(=O)c2ccccc21 [Compound 8, Atovaquone]
IC50 (PfPPase, μM) [1, 4]: Inactive | IC50 (TmPPase, μM) [2]: Inactive

SMILES: COc1cc(C2c3c(-c4cc(Cl)c(C)cc4O)n[nH]c3C(=O)N2Cc2ccccc2)ccc1O (stereo not drawn) [Compound 16]
IC50 (PfPPase, μM) [1, 4]: Inactive | pIC50 [3, 5]: 4.48

SMILES: C=Cc1cc2nc(C(=O)Oc3ccccc3Br)cc(-c3cc(C)cc(C)c3)n2n1 [Compound 20]
pIC50 ([3]; read-out: IC50 against TmPPase): > 4.70

SMILES: O=P(O)(O)NP(=O)(O)O [IDP, imidodiphosphate]
pIC50 ([1]; purified PfPPase-VP1 reconstituted in liposomes, Tris-HCl pH 7.5, 50 °C, 45 min, triplicate, interval given, read-out: IC50 (PfPPase)): 3.76
